Values of other authors as cited in US20120183610A1, “GLUCOCORTICOID THERAPY” (priority 2009, published 2012).
Each block holds one compound with its values, some of them ahead of it.

Experiments:
[1] = dose equivalent to 20 mg hydrocortisone
[2] = after 2.3 to 6.8 months; mean dose reduced to 20.8±1.0 mg; p<0.01
[3] = 30 to 15 mg daily; after 3 months

SMILES: CC(=O)OCC(=O)[C@@]1(O)CC[C@H]2[C@@H]3CCC4=CC(=O)CC[C@]4(C)[C@H]3C(=O)C[C@@]21C [Cortisone acetate]
Equivalent amount [1]: 25 mg

serum concentration of osteocalcin at re-evaluation [2]: 19.9 ng/mL
BMI before dose reduction (11 patients with secondary adrenal insufficiency): 31.5±1.1 kg/m^2
fasting glucose and insulin levels after dose reduction (dose reduced on average by 50%): unaffected
BMI after dose reduction (dose reduced on average by 50%, follow-up 6-12 months): 29.4±1.0 kg/m^2
SMILES: C[C@]12CCC(=O)C=C1CC[C@@H]1[C@@H]2[C@@H](O)C[C@@]2(C)[C@H]1CC[C@]2(O)C(=O)CO [Hydrocortisone]
Equivalent amount [1]: 20 mg
body weight and cardiovascular functional variables after dose reduction [3]: no change in body weight or any of the cardiovascular functional variables studied
body weight reduction, on average (dose reduced on average by 50%, 11 patients, follow-up 6-12 months): 7.1 kg

SMILES: C[C@@H]1C[C@H]2[C@@H]3C[C@H](F)C4=CC(=O)C=C[C@]4(C)[C@H]3[C@@H](O)C[C@]2(C)[C@@]1(O)C(=O)CO [Paramethasone]
Equivalent amount [1]: 2 mg

SMILES: C[C@]12C=CC(=O)C=C1CC[C@@H]1[C@@H]2[C@@H](O)C[C@@]2(C)[C@H]1CC[C@]2(O)C(=O)CO [Prednisolone]
Equivalent amount [1]: 5 mg

SMILES: C[C@]12C=CC(=O)C=C1CC[C@H]1[C@@H]3C[C@@H](O)[C@](O)(C(=O)CO)[C@@]3(C)C[C@H](O)[C@@]12F [Triamcinolone]
Equivalent amount [1]: 4 mg
